The values that follow are results of earlier work, collected in patent US5650415A, “Quinoline compounds” (Sugen, Inc., priority 1995, dated 1997).

Series [1] relates to IGF-1R protein tyrosine kinase. The note with it: Sepp-Lorenzino et al., Abstract, 1994; cited from earlier work.
Series [2] concerns human breast cancer cells. The note with it: Sepp-Lorenzino et al., Abstract, 1994; cited from earlier work.

For the compound `COC1C=CC=C(C)C(=O)NC2=CC(=O)C=C(C2=O)C(OC)C(C)CC(OC)C(OC)C(C)C=C(C)C1OC(N)=O` (centres unmarked) [Herbimycin A], the “inhibition of IGF-1R protein tyrosine kinase” value in series [1] was “inhibit the IGF-1R protein tyrosine kinase”. Further, in series [2], the “inhibition of cellular proliferation” value is “inhibit the IGF-1R protein tyrosine kinase and cellular proliferation in human breast cancer cells”.
